Reference: US20250144067A1, “PERSONALIZED STARVATION THERAPY FOR CANCER” (Faeth Therapeutics, Inc., priority 2021, published 2025)
Structures can show the parent of a compound that is named as a salt.

Each compound was assayed on NCI-H292 lung cancer cells (assay: FDA drug screening, complete media vs cholesterol-free media without statin (TABLE 1)). Conditions: Complete minus Cholesterol-free; >0 enhanced anti-cancer activity, about 0 neutral, <0 antagonist.
Type: cell-based, human

Q: With C=CC1=C(C(=O)O)N2C(=O)[C@@H](NC(=O)/C(=N\O)c3csc(N)n3)[C@H]2SC1 [Cefdinir] as the compound, how does the Difference read?
A: −0.24

Q: With CO/N=C(\C(=O)N[C@@H]1C(=O)N2C(C(=O)OCOC(=O)C(C)(C)C)=C(/C=C\c3scnc3C)CS[C@H]12)c1csc(N)n1 [Cefditoren (Pivoxil)] as the compound, how does the Difference read?
A: −0.05

Q: How did the Difference turn out when C=CC1=C(C(=O)O)N2C(=O)[C@@H](NC(=O)/C(=N\OCC(=O)O)c3csc(N)n3)[C@H]2SC1 [Cefixime] was run?
A: 0.05

Q: How did the Difference turn out when CO/N=C(\C(=O)N[C@@H]1C(=O)N2C(C(=O)O)=C(CSc3nnnn3C)CS[C@H]12)c1csc(N)n1 [Cefmenoxime (hydrochloride)] was run?
A: −0.30

Q: With CO/N=C(\C(=O)N[C@@H]1C(=O)N2C(C(=O)[O-])=C(CSc3nc(C)c(CC(=O)[O-])s3)CS[C@H]12)c1csc(N)n1.[Na+].[Na+] [Cefodizime (sodium)] as the compound, how does the Difference read?
A: 0.06

Q: For CO/N=C(\C(=O)N[C@@H]1C(=O)N2C(C(=O)O)=C(CSc3nc(C)c(CC(=O)O)s3)CS[C@H]12)c1csc(N)n1 [Cefodizime], which Difference is on record?
A: −0.06

Same assay, conditions: NCI-H292 cells, cholesterol-free media without statin

Q: How did the Cholesterol-free turn out when C=CC1=C(C(=O)O)N2C(=O)[C@@H](NC(=O)/C(=N\O)c3csc(N)n3)[C@H]2SC1 [Cefdinir] was run?
A: 1.244

Q: CO/N=C(\C(=O)N[C@@H]1C(=O)N2C(C(=O)O)=C(CSc3nnnn3C)CS[C@H]12)c1csc(N)n1 [Cefmenoxime (hydrochloride)] was tested. Which Cholesterol-free did it give?
A: 1.225

Same assay, conditions: NCI-H292 cells, cholesterol-free media without statin, FDA drug library screen

Q: With CO/N=C(\C(=O)N[C@@H]1C(=O)N2C(C(=O)OCOC(=O)C(C)(C)C)=C(/C=C\c3scnc3C)CS[C@H]12)c1csc(N)n1 [Cefditoren (Pivoxil)] as the compound, how does the Cholesterol-free read?
A: 1.012

Q: With C=CC1=C(C(=O)O)N2C(=O)[C@@H](NC(=O)/C(=N\OCC(=O)O)c3csc(N)n3)[C@H]2SC1 [Cefixime] as the compound, how does the Cholesterol-free read?
A: 1.137

Q: For CO/N=C(\C(=O)N[C@@H]1C(=O)N2C(C(=O)[O-])=C(CSc3nc(C)c(CC(=O)[O-])s3)CS[C@H]12)c1csc(N)n1.[Na+].[Na+] [Cefodizime (sodium)], which Cholesterol-free is on record?
A: 1.009

Q: How did the Cholesterol-free turn out when CO/N=C(\C(=O)N[C@@H]1C(=O)N2C(C(=O)O)=C(CSc3nc(C)c(CC(=O)O)s3)CS[C@H]12)c1csc(N)n1 [Cefodizime] was run?
A: 0.9888

Same assay, conditions: NCI-H292 cells, complete media

Q: C=CC1=C(C(=O)O)N2C(=O)[C@@H](NC(=O)/C(=N\O)c3csc(N)n3)[C@H]2SC1 [Cefdinir] was tested. Which Complete did it give?
A: 0.9998

Q: With CO/N=C(\C(=O)N[C@@H]1C(=O)N2C(C(=O)O)=C(CSc3nnnn3C)CS[C@H]12)c1csc(N)n1 [Cefmenoxime (hydrochloride)] as the compound, how does the Complete read?
A: 0.93

Same assay, conditions: NCI-H292 cells, complete media, FDA drug library screen

Q: CO/N=C(\C(=O)N[C@@H]1C(=O)N2C(C(=O)OCOC(=O)C(C)(C)C)=C(/C=C\c3scnc3C)CS[C@H]12)c1csc(N)n1 [Cefditoren (Pivoxil)] was tested. Which Complete did it give?
A: 0.9665

Q: How did the Complete turn out when C=CC1=C(C(=O)O)N2C(=O)[C@@H](NC(=O)/C(=N\OCC(=O)O)c3csc(N)n3)[C@H]2SC1 [Cefixime] was run?
A: 1.188

Q: With CO/N=C(\C(=O)N[C@@H]1C(=O)N2C(C(=O)[O-])=C(CSc3nc(C)c(CC(=O)[O-])s3)CS[C@H]12)c1csc(N)n1.[Na+].[Na+] [Cefodizime (sodium)] as the compound, how does the Complete read?
A: 1.069

Q: How did the Complete turn out when CO/N=C(\C(=O)N[C@@H]1C(=O)N2C(C(=O)O)=C(CSc3nc(C)c(CC(=O)O)s3)CS[C@H]12)c1csc(N)n1 [Cefodizime] was run?
A: 0.9297

The compounds below were run on NCI-H292 lung cancer cells (assay: FDA drug screening, complete media vs cholesterol-free media with simvastatin (TABLE 2)). Conditions: NCI-H292 cells, FDA drug library screen, cholesterol-free media with simvastatin 0.04 μM.
Type: cell-based, human

Q: For CO/N=C(\C(=O)N[C@@H]1C(=O)N2C(C(=O)O)=C(CSc3nnnn3C)CS[C@H]12)c1csc(N)n1 [Cefmenoxime (hydrochloride)], which “Cholesterol-free media + simvastatin (0.04 μM)” value is on record?
A: 0.8027

Same assay, conditions: NCI-H292 cells, FDA drug library screen, complete media

Q: CO/N=C(\C(=O)N[C@@H]1C(=O)N2C(C(=O)O)=C(CSc3nnnn3C)CS[C@H]12)c1csc(N)n1 [Cefmenoxime (hydrochloride)] was tested. Which “Complete Media” value did it give?
A: 0.7093

Same assay, conditions: NCI-H292 cells, cholesterol-free media with simvastatin 0.04 μM; cell growth value in FDA drug screen

Q: With CO/N=C(\C(=O)N[C@@H]1C(=O)N2C(C(=O)OCOC(=O)C(C)(C)C)=C(/C=C\c3scnc3C)CS[C@H]12)c1csc(N)n1 [Cefditoren (Pivoxil)] as the compound, how does the “Cholesterol-free media + simvastatin (0.04 μM)” value read?
A: 0.7736

Same assay, conditions: NCI-H292 cells, complete media; cell growth value in FDA drug screen

Q: CO/N=C(\C(=O)N[C@@H]1C(=O)N2C(C(=O)OCOC(=O)C(C)(C)C)=C(/C=C\c3scnc3C)CS[C@H]12)c1csc(N)n1 [Cefditoren (Pivoxil)] was tested. Which “Complete Media” value did it give?
A: 0.8262

Same assay, conditions: NCI-H292 cells, drug in cholesterol-free media with simvastatin 0.04 μM

Q: For C=CC1=C(C(=O)O)N2C(=O)[C@@H](NC(=O)/C(=N\O)c3csc(N)n3)[C@H]2SC1 [Cefdinir], which “Cholesterol-free media + simvastatin (0.04 μM)” value is on record?
A: 1.206

Q: With C=CC1=C(C(=O)O)N2C(=O)[C@@H](NC(=O)/C(=N\OCC(=O)O)c3csc(N)n3)[C@H]2SC1 [Cefixime] as the compound, how does the “Cholesterol-free media + simvastatin (0.04 μM)” value read?
A: 1.663

Q: With CO/N=C(\C(=O)N[C@@H]1C(=O)N2C(C(=O)[O-])=C(CSc3nc(C)c(CC(=O)[O-])s3)CS[C@H]12)c1csc(N)n1.[Na+].[Na+] [Cefodizime (sodium)] as the compound, how does the “Cholesterol-free media + simvastatin (0.04 μM)” value read?
A: 1.29

Q: Which “Cholesterol-free media + simvastatin (0.04 μM)” value does the source give for CO/N=C(\C(=O)N[C@@H]1C(=O)N2C(C(=O)O)=C(CSc3nc(C)c(CC(=O)O)s3)CS[C@H]12)c1csc(N)n1 [Cefodizime] here?
A: 1.707

Same assay, conditions: NCI-H292 cells, drug in complete media

Q: With C=CC1=C(C(=O)O)N2C(=O)[C@@H](NC(=O)/C(=N\O)c3csc(N)n3)[C@H]2SC1 [Cefdinir] as the compound, how does the “Complete Media” value read?
A: 0.987

Q: How did the “Complete Media” value turn out when C=CC1=C(C(=O)O)N2C(=O)[C@@H](NC(=O)/C(=N\OCC(=O)O)c3csc(N)n3)[C@H]2SC1 [Cefixime] was run?
A: 1.418

Q: With CO/N=C(\C(=O)N[C@@H]1C(=O)N2C(C(=O)[O-])=C(CSc3nc(C)c(CC(=O)[O-])s3)CS[C@H]12)c1csc(N)n1.[Na+].[Na+] [Cefodizime (sodium)] as the compound, how does the “Complete Media” value read?
A: 1.088

Q: For CO/N=C(\C(=O)N[C@@H]1C(=O)N2C(C(=O)O)=C(CSc3nc(C)c(CC(=O)O)s3)CS[C@H]12)c1csc(N)n1 [Cefodizime], which “Complete Media” value is on record?
A: 1.539

Same assay, conditions: complete media minus cholesterol-free media + simvastatin; >0 enhanced anti-cancer activity, about 0 neutral, <0 antagonist

Q: How did the Difference turn out when CO/N=C(\C(=O)N[C@@H]1C(=O)N2C(C(=O)OCOC(=O)C(C)(C)C)=C(/C=C\c3scnc3C)CS[C@H]12)c1csc(N)n1 [Cefditoren (Pivoxil)] was run?
A: 0.05

Same assay, conditions: complete media vs cholesterol-free media + simvastatin (0.04 μM); >0 enhanced anti-cancer activity, about 0 neutral, <0 antagonist

Q: Which Difference does the source give for C=CC1=C(C(=O)O)N2C(=O)[C@@H](NC(=O)/C(=N\O)c3csc(N)n3)[C@H]2SC1 [Cefdinir] here?
A: −0.22

Q: Which Difference does the source give for C=CC1=C(C(=O)O)N2C(=O)[C@@H](NC(=O)/C(=N\OCC(=O)O)c3csc(N)n3)[C@H]2SC1 [Cefixime] here?
A: −0.24

Q: Which Difference does the source give for CO/N=C(\C(=O)N[C@@H]1C(=O)N2C(C(=O)O)=C(CSc3nnnn3C)CS[C@H]12)c1csc(N)n1 [Cefmenoxime (hydrochloride)] here?
A: −0.09

Q: Which Difference does the source give for CO/N=C(\C(=O)N[C@@H]1C(=O)N2C(C(=O)[O-])=C(CSc3nc(C)c(CC(=O)[O-])s3)CS[C@H]12)c1csc(N)n1.[Na+].[Na+] [Cefodizime (sodium)] here?
A: −0.20

Q: How did the Difference turn out when CO/N=C(\C(=O)N[C@@H]1C(=O)N2C(C(=O)O)=C(CSc3nc(C)c(CC(=O)O)s3)CS[C@H]12)c1csc(N)n1 [Cefodizime] was run?
A: −0.17
